In paper PMC6222787, “Anti-Inflammatory Activities of Compounds Isolated from the Rhizome of Anemarrhena asphodeloides” (Molecules : A Journal of Synthetic Chemistry and Natural …, 2018):
Where two headings read alike, the source gives them in different places.

Assays:
[1] = test system: N9 microglial cells
Method: (§1) The N9 microglial cell line was obtained from China Cell Line Bank. The cells were grown at 37 °C in IMDM supplemented with 10% heat-inactivated FBS under a humidified atmosphere of 5% CO2. In this experiment, cells were allowed to acclimate for 24 h before treatments.
(§2) Cell viability was evaluated by the MTT reduction assay [36]. Cells were seeded in 96-well plates at a density of 2 × 10^4 cells/well and allowed to grow for 24 h before treatments. Thereafter, 100 μL medium containing various concentrations (0–50 μM) of compounds were added and incubated for another 24 h. MTT was dissolved in DD water (5 mg/mL) and 10 μL were added to each well. After 4 h, the medium was removed and 100 μL DMSO were filled in each well. The optical density was measured at 490 nm on a Flexstation 3 (Molecular Devices, Silicon Valley, CA, USA).

[2] = test system: LPS-induced NO production in N9 microglial cells; assay: LPS-induced NO production (Griess assay); format: cell-based, mouse; conditions: for Nitrite: control 4.60, LPS group 31.81 μM; for Nitrite / % Inhibition of NO Production / inhibition at 25 µM / inhibition at 50 µM: mean ± S.E.M.; for inhibition at 25 µM / inhibition at 50 µM: Mus musculus
Method: Figure 2 Inhibitory effects of TBIII (A) and t-HL (B) in LPS-stimulated N9 microglial cells. Cells were pretreated with different concentrations of TBIII and t-HL 1 h prior to the addition of LPS (100 ng/mL) and were further incubated for 24 h. NO production was determined by using the Griess reagent. IC50 values and curve fitting were determined using Graphpad Prism (GraphPad, Avenida, CA, USA).
Accumulation of nitrite, a metabolite of NO in the culture media, was measured by Griess assay as previously reported. Briefly, cells were stimulated with 100 ng/mL of LPS for 24 h in the presence of the test compounds (0–50 μM).

[3] = MTT assay for cell viability; conditions: mouse, N9 microglial cells, % Cell Viability, 24 h, MTT, mean ± S.E.M.; for viability at 24 h, 25 µM: 25 μM compound; for viability at 24 h, 50 µM: 50 μM compound
Method: as §1, §2

[4] = 25 μM compound, LPS 100 ng/mL, 24 h
[5] = 50 μM compound, LPS 100 ng/mL, 24 h
[6] = 50 μM compound, LPS 100 ng/mL, 24 h, 50 µM
[7] = N9, 24 h, 25 μM compound, LPS 100 ng/mL, 24 h, read-out: % Inhibition of NO Production
[8] = N9, 24 h, 50 μM compound, LPS 100 ng/mL, 24 h, read-out: % Inhibition of NO Production
[9] = N9, 25 μM compound, LPS 100 ng/mL, 24 h, read-out: % Inhibition of NO Production
[10] = N9, 50 μM compound, LPS 100 ng/mL, 24 h, read-out: % Inhibition of NO Production
[11] = 25 μM compound, LPS 100 ng/mL, 24 h, 25 µM
[12] = N9, 24 h, read-out: % Inhibition of NO Production, 25 μM compound, LPS 100 ng/mL, 24 h
[13] = N9, 24 h, read-out: % Inhibition of NO Production, 50 μM compound, LPS 100 ng/mL, 24 h

SMILES | cytotoxicity against N9 microglial cells (in words) [1] | cell viability reduced to ([1]; mouse, 24 h) [%] | % Cell Viability ([1]; mouse, 24 h, 25 µM) [%] | % Cell Viability ([1]; mouse, 24 h, 50 µM) [%] | Nitrite [2, 4] [µM] | Nitrite [2, 5] [µM] | % Inhibition of NO Production [2, 6] [%] | viability at 24 h, 25 µM [3] [%] | viability at 24 h, 50 µM [3] [%] | inhibition at 25 µM [2, 7] [%] | inhibition at 50 µM [2, 8] [%] | inhibition at 25 µM [2, 9] [%] | inhibition at 50 µM [2, 10] [%] | % Inhibition of NO Production [2, 11] [%] | inhibitory activity on NO production (in words) ([2]; compared with compound 11) | inhibition at 25 µM [2, 12] [%] | inhibition at 50 µM [2, 13] [%]
CC(C)CCC1(O)OC2C(O)C3C4CCC5CC(OC6OC(CO)C(O)C(O)C6OC6OC(CO)C(O)C(O)C6O)CCC5(C)C4CCC3(C)C2C1C (stereo not drawn) [Compound 4, Anemarrhenasaponin II] | potent cytotoxicity | ≤ 60 | 63.92 ± 5.98 | 8.57 ± 0.11 | 9.52 ± 0.84 | 3.80 ± 0.53 | 87.98 ± 2.99 |  |  |  |  |  |  |  |  |  | 
COc1cc(O)c(C(=O)c2ccc(O)cc2)c(O)c1 [Compound 1, 2,6,4′-trihydroxy-4-methoxybenzophenone] |  |  |  |  | 26.78 ± 1.27 | 19.29 ± 0.10 |  | 98.7 ± 8.27 | 97.5 ± 1.85 | 15.3 ± 9.4 | 41.7 ± 3.9 |  |  |  |  |  | 
O=C(c1ccc(O)cc1)c1c(O)cc(O)cc1O [Compound 3, Iriflophene] |  |  |  |  | 26.06 ± 1.24 | 20.41 ± 0.38 |  | 107 ± 3.62 | 113 ± 5.32 | 18.1 ± 3.88 | 35.9 ± 1.2 |  |  |  |  |  | 
O=c1cc(-c2ccc(O)cc2)oc2cc(O)c([C@@H]3O[C@H](CO)[C@@H](O)[C@H](O)[C@H]3O)c(O)c12 [Compound 20, Isovitexin] |  |  |  |  | 28.39 ± 0.07 | 22.82 ± 0.27 |  | 135 ± 11.8 | 95.7 ± 2.75 | 10.2 ± 4.73 | 29.8 ± 0.6 |  |  |  |  |  | 
C[C@@H]1O[C@@H](O[C@H]2[C@H](OC(=O)[C@]34CCC(C)(C)C[C@H]3C3=CC[C@@H]5[C@@]6(C)C[C@H](O)[C@H](O[C@@H]7O[C@H](CO)[C@@H](O)[C@H](O[C@@H]8O[C@H](CO)[C@@H](O)[C@H](O)[C@H]8O)[C@H]7O)C(CO)(CO)[C@@H]6CC[C@@]5(C)[C@]3(C)C[C@H]4O)OC[C@H](O)[C@@H]2O)[C@H](O)[C@H](O)[C@H]1O[C@@H]1OC[C@@H](O)[C@H](O[C@@H]2OC[C@](O)(CO)[C@H]2O)[C@H]1O [Compound 16, Platycodin D2] |  |  |  |  | 33.68 ± 1.44 | 24.94 ± 0.45 |  | 114 ± 4.62 | 101 ± 1.83 | -5.78 ± 4.51 | 21.7 ± 1.4 |  |  |  |  |  | 
CC(CCC1(O)OC2CC3C4CCC5CC(OC6OC(CO)C(OC7OC(CO)C(O)C(OC8OCC(O)C(O)C8O)C7OC7OC(CO)C(O)C(O)C7O)C(O)C6O)C(O)CC5(C)C4CCC3(C)C2C1C)COC1OC(CO)C(O)C(O)C1O (stereo not drawn) [Compound 7, Hostaplantagineoside C] |  |  |  |  | 32.76 ± 0.85 | 23.52 ± 0.37 |  | 84.9 ± 1.82 | 79.7 ± 6.03 |  |  | -3.57 ± 8.75 | 25.8 ± 2.4 |  |  |  | 
CC1=C(CCC(C)COC2OC(CO)C(O)C(O)C2O)OC2CC3C4CCC5CC(OC6OC(CO)C(O)C(O)C6OC6OC(CO)C(O)C(O)C6O)CCC5(C)C4CCC3(C)C12 (stereo not drawn) [Compound 13, Timosaponin C] |  |  | 109.04 ± 4.85 | 97.19 ± 6.46 | 24.24 ± 1.32 | 13.36 ± 0.56 | 58.10 ± 1.75 |  |  |  |  |  |  | 23.94 ± 4.13 | much weaker inhibitory activity |  | 
CC(C)CCC1(O)OC2C(O)C3C4CCC5CC(OC6OC(CO)C(O)C(O)C6OC6OC(CO)C(O)C(O)C6O)CCC5(C)C4CCC3(C)C2C1C (stereo not drawn) [Compound 5, Anemarrhenasaponin I] | not |  | 110.42 ± 4.67 | 115.47 ± 6.83 | 29.82 ± 0.24 | 19.14 ± 0.59 | 39.90 ± 1.85 |  |  |  |  |  |  | 6.36 ± 0.76 |  |  | 
CC(CCC1(O)OC2CC3C4CCC5CC(OC6OC(CO)C(O)C(O)C6OC6OC(CO)C(O)C(O)C6O)CCC5(C)C4CCC3(C)C2C1C)COC1OC(CO)C(O)C(O)C1O (stereo not drawn) [Compound 6, Anemarnoside B] |  |  |  |  | 40.89 ± 2.04 | 26.38 ± 2.63 |  | 115 ± 5.52 | 104 ± 16.5 |  |  |  |  |  |  | -28.3 ± 6.4 | 17.2 ± 8.26
CC1=C(CCC(C)COC2OC(CO)C(O)C(O)C2O)OC2CC3C4CCC5CC(OC6OC(CO)C(O)C(O)C6OC6OC(CO)C(O)C(O)C6O)CCC5(C)C4CCC3(C)C12 (stereo not drawn) [Compound 12, Macrostemonoside F] |  |  | 104.74 ± 3.16 | 105.77 ± 2.84 | 19.64 ± 1.21 | 11.82 ± 1.03 | 62.89 ± 3.22 |  |  |  |  |  |  | 38.33 ± 3.80 |  |  | 
Nc1ncnc2c1ncn2[C@@H]1O[C@H](CO)[C@@H](O)[C@H]1O [Compound 25, Adenosine] |  |  |  |  | 27.43 ± 1.35 | 20.69 ± 1.74 |  | 81.6 ± 1.26 | 80.5 ± 6.19 | 13.9 ± 4.23 | 35.1 ± 5.47 |  |  |  |  |  | 
C=CCOC1O[C@H](CO)[C@@H](O)[C@H](O)[C@H]1O (stereo in doubt) [Compound 26, α-D-Glucose monoallyl ether] |  |  |  |  | 29.57 ± 0.71 | 22.60 ± 2.19 |  | 107.2 ± 0.63 | 105 ± 16.1 | 7.13 ± 2.23 | 29 ± 8.43 |  |  |  |  |  | 
C[C@@H]1O[C@@H](O[C@H]2[C@H](OC(=O)[C@]34CCC(C)(C)C[C@H]3C3=CC[C@@H]5[C@@]6(C)C[C@H](O)[C@H](O[C@@H]7O[C@H](CO)[C@@H](O)[C@H](O[C@@H]8O[C@H](CO)[C@@H](O)[C@H](O)[C@H]8O)[C@H]7O)[C@@](C)(CO)[C@@H]6CC[C@@]5(C)[C@]3(C)C[C@H]4O)OC[C@H](O)[C@@H]2O)[C@H](O)[C@H](O)[C@H]1O[C@@H]1OC[C@@H](O)[C@H](O[C@@H]2OC[C@](O)(CO)[C@H]2O)[C@H]1O [Compound 17, Polygalacin D2] |  |  |  |  | 31.14 ± 0.78 | 26.21 ± 0.82 |  | 97.5 ± 1.83 | 88 ± 8.92 | 2.25 ± 2.46 | 17.7 ± 3.14 |  |  |  |  |  | 
COc1ccc(C(=O)c2ccc(O)cc2)c(OC2OC(CO)C(O)C(O)C2O)c1O (stereo not drawn) [Compound 2, Zimoside A] |  |  |  |  | 26.64 ± 1.13 | 21.41 ± 0.92 |  | 97.2 ± 3.27 | 94.6 ± 5.47 | 16.3 ± 3.55 | 32.8 ± 2.88 |  |  |  |  |  | 
N[C@@H](Cc1c[nH]c2ccccc12)C(=O)O [Compound 24, Tryptophan] |  |  |  |  | 30.49 ± 0.93 | 24.19 ± 0.72 |  | 105 ± 6.13 | 92.4 ± 8.71 |  |  |  |  |  |  | 4.24 ± 2.92 | 24 ± 2.27
O=c1cc(-c2ccc(O)cc2)oc2c([C@@H]3O[C@H](CO)[C@@H](O)[C@H](O)[C@H]3O)c(O)cc(O)c12 [Compound 21, Vitexin] |  |  |  |  | 28.88 ± 1.38 | 17.81 ± 1.13 |  | 90.5 ± 2.51 | 81.8 ± 4.38 |  |  | 9.39 ± 4.33 | 44.1 ± 3.56 |  |  |  | 
